Tests used:
Format in all cases: in vivo
[1] = tested on: Italian ryegrass (Lolium multiflorum); test: Test A preemergence; settings: Lolium multiflorum, pre-emergence, 240 h
Outline: (§1)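 Injury scores run from 0, no effect, to 100, complete control, judged by eye against untreated plants roughly 10 days after treatment. Chemicals carried a surfactant in a non-phytotoxic solvent and went onto loam–sand soil preemergence or onto one- to two-leaf seedlings postemergence.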

kochia (Kochia scoparia) [2] = test: Test A preemergence; settings: Bassia scoparia, pre-emergence, 240 h
Outline: as §1

[3] = tested on: ragweed (common ragweed, Ambrosia elatior); test: Test A preemergence; settings: Ambrosia artemisiifolia, pre-emergence, 240 h
Outline: as §1

[4] = tested on: barnyardgrass (Echinochloa crus-galli); test: Test A preemergence; settings: Echinochloa crus-galli, pre-emergence, 240 h
Outline: as §1

[5] = tested on: giant foxtail (Setaria faberii); test: Test A preemergence; settings: Setaria faberi, pre-emergence, 240 h
Outline: as §1

[6] = tested on: pigweed (Amaranthus retroflexus); test: Test A preemergence; settings: Amaranthus retroflexus, pre-emergence, 240 h
Outline: as §1

[7] = tested on: wheat (Triticum aestivum); test: Test A postemergence; settings: Triticum aestivum, post-emergence, 240 h, 0 to 100 scale, read-out: Plant response rating, Wheat
Outline: as §1

[8] = tested on: Italian ryegrass (Lolium multiflorum); test: Test A postemergence; settings: Lolium multiflorum, post-emergence, 240 h, 0 to 100 scale, read-out: Plant response rating, Ryegrass, Italian
Outline: as §1

kochia (Kochia scoparia) [9] = test: Test A postemergence; settings: Bassia scoparia, post-emergence, 240 h, 0 to 100 scale, read-out: Plant response rating, Kochia
Outline: as §1

[10] = tested on: ragweed (common ragweed, Ambrosia elatior); test: Test A postemergence; settings: Ambrosia artemisiifolia, post-emergence, 240 h, 0 to 100 scale, read-out: Plant response rating, Ragweed
Outline: as §1

corn (Zea mays) = test: Test A postemergence; settings: Zea mays, post-emergence, 240 h, 0 to 100 scale
Outline: as §1

[11] = tested on: barnyardgrass (Echinochloa crus-galli); test: Test A postemergence; settings: Echinochloa crus-galli, post-emergence, 240 h, 0 to 100 scale, read-out: Plant response rating, Barnyardgrass
Outline: as §1

[12] = tested on: giant foxtail (Setaria faberii); test: Test A postemergence; settings: Setaria faberi, post-emergence, 240 h, 0 to 100 scale, read-out: Plant response rating, Foxtail, Giant
Outline: as §1

[13] = tested on: pigweed (Amaranthus retroflexus); test: Test A postemergence; settings: Amaranthus retroflexus, post-emergence, 240 h, 0 to 100 scale, read-out: Plant response rating, Pigweed
Outline: as §1

[14] = tested on: galium (catchweed bedstraw, Galium aparine); test: Test A postemergence; settings: Galium, post-emergence, 240 h, 0 to 100 scale, read-out: Plant response rating, Galium
Outline: as §1

[15] = tested on: blackgrass (Alopecurus myosuroides); test: Test A postemergence; settings: Alopecurus myosuroides, post-emergence, 240 h, 0 to 100 scale, read-out: Plant response rating, Blackgrass
Outline: as §1

rice (Oryza sativa) = test: Test B flooded paddy; settings: Oryza sativa, 336 h; 250 g ai/ha, Flood, 13 to 15 days, scale 0 (no effect) to 100 (complete control); read-out: Plant response rating, Rice
Outline: (§2)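 Flooded 3 cm over soil; compound into paddy water; depth kept constant. Greenhouse 13–15 d.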

[16] = tested on: barnyardgrass (Echinochloa crus-galli); test: Test B flooded paddy; settings: Echinochloa crus-galli, 336 h; 250 g ai/ha, Flood, 13 to 15 days, scale 0 (no effect) to 100 (complete control); read-out: Plant response rating, Barnyardgrass
Outline: as §2

[17] = tested on: ducksalad (Heteranthera limosa); test: Test B flooded paddy; settings: Heteranthera limosa, 336 h; 250 g ai/ha, Flood, 13 to 15 days, scale 0 (no effect) to 100 (complete control); read-out: Plant response rating, Ducksalad
Outline: as §2

[18] = tested on: sedge, umbrella (small-flower umbrella sedge, Cyperus difformis); test: Test B flooded paddy; settings: Cyperus difformis, 336 h; 250 g ai/ha, Flood, 13 to 15 days, scale 0 (no effect) to 100 (complete control); read-out: Plant response rating, Sedge, Umbrella
Outline: as §2

[19] = tested on: waterhemp (common waterhemp, Amaranthus rudis); test: Test C postemergence; settings: Amaranthus tuberculatus, post-emergence, Postemergence, scale 0 to 100, read-out: Plant response rating, Waterhemp
Outline: (§3)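 After preemergence treatment of seeds in loam-sand soil or foliar treatment at the 1- to 4-leaf stage of plants in peat/vermiculite medium, pots were kept 13-15 days in the greenhouse. Each was then scored visually, 0 meaning no effect and 100 complete control.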

kochia (Kochia scoparia) [20] = test: Test C postemergence; settings: Bassia scoparia, post-emergence, Postemergence, scale 0 to 100, read-out: Plant response rating, Kochia
Outline: as §3

wild oat (Avena fatua) = test: Test C postemergence; settings: Avena fatua, post-emergence, Postemergence, scale 0 to 100, read-out: Plant response rating, Oat, Wild
Outline: as §3

Fc1cccc(Oc2ncc(C(F)(F)F)cn2)c1Oc1ncc(Cl)cn1 [Compound 42, 5-chloro-2-[2-fluoro-6-[[5-(trifluoromethyl)-2-pyrimidinyl]oxy]phenoxy]pyrimidine]
pest or weed control at 125 g/ha ([1]; 125 g ai/ha, 0 to 100 scale (0 no effect, 100 complete control), read-out: Ryegrass, Italian plant response rating): 60% | pest or weed control at 500 g/ha ([1]; 500 g ai/ha, 0 to 100 scale, read-out: Plant response rating, Ryegrass, Italian): 100% | pest or weed control at 125 g/ha (kochia (Kochia scoparia) [2]; 125 g ai/ha, 0 to 100 scale (0 no effect, 100 complete control), read-out: Kochia plant response rating): 100% | pest or weed control at 500 g/ha (kochia (Kochia scoparia) [2]; 500 g ai/ha, 0 to 100 scale, read-out: Plant response rating, Kochia): 100% | pest or weed control at 125 g/ha ([3]; 125 g ai/ha, 0 to 100 scale (0 no effect, 100 complete control), read-out: Ragweed plant response rating): 100% | pest or weed control at 500 g/ha ([3]; 500 g ai/ha, 0 to 100 scale, read-out: Plant response rating, Ragweed): 100% | pest or weed control at 125 g/ha ([4]; 125 g ai/ha, 0 to 100 scale (0 no effect, 100 complete control), read-out: Barnyardgrass plant response rating): 100% | pest or weed control at 500 g/ha ([4]; 500 g ai/ha, 0 to 100 scale, read-out: Plant response rating, Barnyardgrass): 100% | pest or weed control at 125 g/ha ([5]; 125 g ai/ha, 0 to 100 scale (0 no effect, 100 complete control), read-out: Foxtail, Giant plant response rating): 100% | pest or weed control at 500 g/ha ([5]; 500 g ai/ha, 0 to 100 scale, read-out: Plant response rating, Foxtail, Giant): 100% | pest or weed control at 125 g/ha ([6]; 125 g ai/ha, 0 to 100 scale (0 no effect, 100 complete control), read-out: Pigweed plant response rating): 100% | pest or weed control at 500 g/ha ([6]; 500 g ai/ha, 0 to 100 scale, read-out: Plant response rating, Pigweed): 100% | plant injury at 125 g/ha ([7]; 125 g ai/ha): 80% | plant injury at 500 g/ha ([7]; 500 g ai/ha): 100% | pest or weed control at 125 g/ha ([8]; 125 g ai/ha): 100% | pest or weed control at 500 g/ha ([8]; 500 g ai/ha): 100% | pest or weed control at 125 g/ha (kochia (Kochia scoparia) [9]; 125 g ai/ha): 100% | pest or weed control at 500 g/ha (kochia (Kochia scoparia) [9]; 500 g ai/ha): 100% | pest or weed control at 125 g/ha ([10]; 125 g ai/ha): 70% | pest or weed control at 500 g/ha ([10]; 500 g ai/ha): 100% | Corn plant response rating (crop injury, 0 = no effect, 100 = complete kill) at 125 g/ha (corn (Zea mays); 125 g ai/ha): 80% | Corn plant response rating (crop injury, 0 = no effect, 100 = complete kill) at 500 g/ha (corn (Zea mays); 500 g ai/ha): 100% | pest or weed control at 125 g/ha ([11]; 125 g ai/ha): 100% | pest or weed control at 500 g/ha ([11]; 500 g ai/ha): 100% | pest or weed control at 125 g/ha ([12]; 125 g ai/ha): 100% | pest or weed control at 500 g/ha ([12]; 500 g ai/ha): 100% | pest or weed control at 125 g/ha ([13]; 125 g ai/ha): 100% | pest or weed control at 500 g/ha ([13]; 500 g ai/ha): 100% | pest or weed control at 125 g/ha ([14]; 125 g ai/ha): 100% | pest or weed control at 500 g/ha ([14]; 500 g ai/ha): 100% | pest or weed control at 125 g/ha ([15]; 125 g ai/ha): 90% | pest or weed control at 500 g/ha ([15]; 500 g ai/ha): 100% | plant injury at 250 g/ha (rice (Oryza sativa)): 80% | pest or weed control at 250 g/ha [16]: 100% | pest or weed control at 250 g/ha [17]: 100% | pest or weed control at 250 g/ha [18]: 100% | pest or weed control at 31 g/ha ([19]; 31 g ai/ha): 90% | pest or weed control at 62 g/ha ([19]; 62 g ai/ha): 95% | pest or weed control at 125 g/ha ([19]; 125 g ai/ha): 95% | pest or weed control at 16 g/ha (kochia (Kochia scoparia) [20]; 16 g ai/ha): 90% | pest or weed control at 31 g/ha (kochia (Kochia scoparia) [20]; 31 g ai/ha): 95% | pest or weed control at 62 g/ha (kochia (Kochia scoparia) [20]; 62 g ai/ha): 100% | pest or weed control at 125 g/ha (kochia (Kochia scoparia) [20]; 125 g ai/ha): 100% | pest or weed control at 31 g/ha (wild oat (Avena fatua); 31 g ai/ha): 10% | pest or weed control at 62 g/ha (wild oat (Avena fatua); 62 g ai/ha): 40% | pest or weed control at 125 g/ha (wild oat (Avena fatua); 125 g ai/ha): 60%

Reference: patent US20170190671A1, “BIS(ARYL)CATECHOL DERIVATIVES AS HERBICIDES” (E I DU PONT DE NEMOURS AND COMPANY, priority 2014, published 2017)
